Data taken from patent US11976076B1 (priority 2023, dated 2024).
Converted amounts (≈) assume the structure as drawn.

Experiments:
[1] = tested on: Mycobacterium tuberculosis H37Rv (ATCC: 25177); experiment: Resazurin Microplate Assay (REMA), anti-tubercular activity against H37Rv; type: cell-based; details: 192 h, read-out: Anti-tubercular activity (MIC) H37Rv

| Compound | melting point | MIC [1] |
| --- | --- | --- |
| O=c1[nH]c(=S)[nH]c2[nH]c(=S)nc(-c3c[nH]c4ccccc34)c12 [Compound 4b, 5-(1H-Indol-3-yl)-2,7-dithioxo-2,3,7,8-tetrahydropyrimido[4,5-d]pyrimidin-4(1H)-one] | 188 to 190 °C | 2 µg/mL (≈ 6.11 µM) |
| O=c1[nH]c(=O)c2c(-c3c[nH]c4ccccc34)nc(=S)[nH]c2[nH]1 [Compound 4a, 5-(1H-Indol-3-yl)-7-thioxo-7,8-dihydropyrimido[4,5-d]pyrimidine-2,4(1H,3H)-dione] | 114 to 116 °C | 4 µg/mL (≈ 12.8 µM) |
| Cn1c(=O)c2c(-c3c[nH]c4ccccc34)nc(=S)[nH]c2n(C)c1=O [Compound 4c, 5-(1H-Indol-3-yl)-1,3-dimethyl-7-thioxo-7,8-dihydropyrimido[4,5-d]pyrimidine-2,4(1H,3H)-dione] | 258 to 260 °C | 1 µg/mL (≈ 2.95 µM) |
